Entries after “also recorded” stand apart in the source; their conditions may differ.
What was measured:
[1] = system: TCR-stimulated human CD4+ memory T cells; experiment: Cytokine ELISA of culture supernatants, CD4+ memory T cells; type: cell-based
Procedure: The study protocol was reviewed and approved by the Institutional Review Board (IRB) of Seoul National University Hospital. Peripheral blood was drawn from healthy controls (HC) after obtaining written consent from study participants, and all experiments were performed according to approved guidelines. Peripheral blood mononuclear cells (PBMCs) were isolated from peripheral blood using density gradient centrifugation (Biocoll separation solution; BIOCHROM Inc., Cambridge, UK). Total CD4^+ T cells, naive T cells and memory CD4^+ T-cells were isolated in a negative selection manner from CD14^+ monocyte depleted PBMCs using the MojoSort™ Human Total CD4^+ T-Cells, CD4^+ naive T-cells and CD4^+ memory T-cell isolation kit (BioLegend, San Diego, Calif.). Purified T cells were cultured in RPMI 1640 medium (hereinafter, “complete RPMI 1640”) supplemented with 10% fetal bovine serum (FBS), 1% penicillin/streptomycin, and 1% L-glutamine. Cells were stimulated with anti-CD3/CD28-coated microbeads (1:10 ratio, Dynabeads T-Activator CD3/CD28, Thermo Fisher Scientific, Waltham, MA) in the presence of designated chemical inhibitors or reagents including 2-amino-2-norbornanecarboxylic acid (BCH), JPH203, acetate, MG132, VH298, cobalt chloride (CoCl2), cycloheximid (CHX) (all provided by Sigma-Aldrich, St. Louis, MO), BCAT1 inhibitor 2 (Bi2: provided by Cayman Chemical, Ann Arbor, MI), 3-hydroxy-3-methylbutyric acid (HMB; provided by Thermo Fisher Scientific, Waltham, MA), and L-β-homoleucine (LβhL; provided by Santa Cruz Biotechnology, Heidelberg, Germany). In some experiments, a customized medium depleted of five essential amino acids (leucine, valine, isoleucine, phenylalanine, methionine) was used (Welgene, Gyeongsan, South Korea). All amino acids used (L-leucine, L-valine, L-isoleucine, L-phenylalanine, L-methionine) were purchased from Sigma-Aldrich.
IL-17A and IFN-γ amounts in culture supernatants were quantified using commercially available human ELISA kits (IL-17A ELISA kit by eBioscience and human IFN-γ ELISA MAX Deluxe by BioLegend) according to the manufacturer's instructions. Light density was measured using an Infinite M200 instrument (Tecan, Männedorf, Switzerland).

[2] = system: human CD4+ naive T cells; experiment: Cell viability by 7-AAD staining; type: cell-based; conditions: Bi2 10 μM, 4 days
Procedure: To analyze T cell proliferative capacity, purified isolated human CD4+ T cells were labeled with 1 μM carboxyfluorescein succinimidyl ester (CFSE; Invitrogen, Waltham, MA, USA) and then stimulated with anti-CD3/CD28 antibody coated microbeads for 4 days at 37° C. Cells were stained with 7AAD (BD Biosciences) for 10 minutes to distinguish dead cells and the extent of CFSE dilution in 7AAD-cells was measured by BD LSRFortessa to analyze proliferative capacity. Antibodies listed in Table 2 and previously known BD LSRFortessa cell analyzers were used.

SMILES: O=C(NNS(=O)(=O)c1ccccc1C(F)(F)F)c1cc2cc(Cl)ccc2o1 [Bi2, BCATc inhibitor 2]
- IL-17A production in CD4+ memory T cells treated with statins [1]: further reduced
- IFN-γ production by CD4+ memory T cells ([1]; TCR stimulation 3 days, Bi2 10 μM, JPH203 10 μM, HMB 0.4 mM, VH298 100 nM, LβhL 400 mg/L): did not affect
- IL-17A production by CD4+ memory T cells ([1]; TCR stimulation 3 days, Bi2 10 μM, JPH203 10 μM, statin 10 μM, LβhL 400 mg/L): preferentially inhibited; also recorded: significantly reduced
- viability of activated CD4+ naive T cells [2]: no significant effect
